Data: EP1007549B1, “COMPOSITIONS AND METHODS FOR HIGHLY EFFICIENT TRANSFECTION” (Innovata Plc, priority 1997, dated 2006)

Tests used:
human dendritic cells = test: Transfection of human dendritic cells with pEGFP-N1, count of fluorescent positive cells; type: cell-based
[1] = Photon correlation spectroscopy (PCS) particle size of K6CL22-DNA complexes; type: physicochemical; conditions: 150mM NaCl, one hour at room temperature, DNA 40 µg/ml
Experimental: Complexes between K6CL22 and DNA were formed in the following way in a laminar flow hood: A stock solution of K6CL22 (typically 8-12mg/ml) was stored in water at -20°C. This was thawed and diluted to 4-400µg/ml in either 10mM HEPES pH7.4 (Hepes) or 10mM HEPES/150mM NaCl pH 7.4 (HBS). (It should be noted that these non-reducing conditions favor the formation of peptide dimers via disulfide bonding between peptides of cysteine residues in the peptide). A stock solution of pCMVβ plasmid DNA (typically 2-4mg/ml in either water or TE buffer) was diluted to 40 µg/ml in Hepes or HBS. Peptide (typically 0.4-1ml) was added to an equal volume of diluted DNA. Different target ratios of Peptide:DNA were achieved by varying the concentration of added peptide. Samples were immediately mixed by gently sucking up and down in a pipette tip and left to incubate at room temperature for a minimum of one hour or if required overnight at 4°C.
In Fig. 1, peptide and DNA were mixed as described above and incubated over night at 4°C. The final DNA concentration was 40µg/ml. […]
For PCS analysis the buffers used in the preparation of samples were filtered through 20nm filters. […] Samples were allowed to equilibrate to 25°C prior to measuring, and an average Zav was determined from a minimum of three measurements. […] Zav and intensity and volume distributions were determined using Malvern PC S software. […]

KLN 205 cells [2] = test: Uptake of YOYO-1 labelled DNA complexes by KLN 205 cells (FACScan); type: cell-based, mouse
Experimental: KLN 205 cells were plated at a density of 1.5×10^5 cells per well in 6 well plates one day prior to the addition of DNA. Plasmid DNA (pCMVgal) was labeled with the fluorescent dye: YOYO-1 (Molecular Probes, Eugene, OR) at a ratio of 1 dye molecule per 100 bp (i.e. 1.5 µl of a 10 µM YOYO-1 solution per µg of DNA). The DNA was diluted to 40 µg/ml with 10 mM HEPES, pH 7.3. […] The transfection complex solution was left for 1 hour at room temperature before it was applied to the cells in EMEM/120 µM chloroquine with or without FCS at a DNA concentration of 2 µg/well (i.e. 100 µl of complex added to 900 µl medium for one well). After 4 hours of incubation at 37°C the cells were washed twice with PBS and harvested with Trypsin/EDTA. The cell associated fluorescence was analyzed using a FACScan (Becton Dickinson).

Cos7 cells = test: Transfection of Cos cells with pCMVβ, Galacto-Light β-galactosidase assay; type: cell-based, monkey; conditions: chloroquine, 5 hours, triplicate
Experimental: The DNA and complex solutions were made as follows: • DNA solution: 100 µg/ml pCMVβ, 25 mM phosphate pH 7.4, 0.6 M NaCl. Complex solution: 100 µg/ml pCMVβ, 25 mM phosphate pH 7.4, 0.6 M NaCl, 200 µg/ml K6CL22. These solutions were incubated at room temperature for 1 hour and then 4°C overnight. Cos cells were seeded at 1×10^5 cells per well in 6 well plates (in DMEM, 10% Fetal calf serum (FCS)) 24 hours before incubation with complex or DNA.
The DNA and complex solutions were diluted into PEG diluent (10% PEG 8000, 25 mM phosphate pH 7.4, 37.5 mM NaCl) to a final DNA concentration of 20 µg/ml. Just prior to transfection the Cos cells were washed with PBS and 875 µl RATQ medium (RAT medium with 137.14 µM chloroquine) was added per well. 125 µl of diluted complex or DNA solution was then added per well and the cells were incubated at 37°C for 5 hours. […] 100 µl of Reaction buffer is added to each tube, the samples are incubated at room temperature for 60 mins and then analyzed using Light Emission Accelerator and a Barthoid lumat LB 9501 luminometer. The protein concentration of the cleared cell lysate was measured using the Bio-Rad DC protein assay kit (Bio-Rad). The results are then expressed as relative light units per mg of protein (Figure 7). […]

HepG2 cells = test: Transfection of HepG2 cells in the presence of serum; type: cell-based; conditions: 10% FCS, optimum charge ratio for each peptide, pCMVβ
Experimental: These transfection complexes were then tested for their comparative ability to transfect HepG2 cells in the presence of 10% FCS (Figure 32).

KLN 205 cells [3] = test: Transfection of KLN 205 cells, luminescence and X-gal; type: cell-based, mouse; conditions: for % expressing cells / average light units: 120 µM chloroquine, 2 µg DNA/well; for average light units: charge ratio +2

SMILES: CC[C@H](C)[C@H](NC(=O)[C@H](CC(N)=O)NC(=O)[C@H](CS)NC(=O)[C@H](CCSC)NC(=O)[C@H](CCCNC(=N)N)NC(=O)[C@H](CCC(=O)O)NC(=O)[C@H](Cc1ccc(O)cc1)NC(=O)[C@H](C)NC(=O)[C@H](CO)NC(=O)[C@H](CCCNC(=N)N)NC(=O)[C@@H](NC(=O)[C@H](CCCCN)NC(=O)[C@H](CCCNC(=N)N)NC(=O)CNC(=O)[C@H](CC(N)=O)NC(=O)[C@H](CCC(=O)O)NC(=O)CNC(=O)[C@H](CCCNC(=N)N)NC(=O)[C@H](Cc1c[nH]c2ccccc12)NC(=O)[C@H](Cc1ccccc1)NC(=O)CNC(=O)[C@H](CC(C)C)NC(=O)[C@H](Cc1ccccc1)NC(=O)CNC(=O)CNC(=O)[C@H](CCCCN)NC(=O)[C@H](CCCCN)NC(=O)[C@H](CCCCN)NC(=O)[C@H](CCCCN)NC(=O)[C@H](CCCCN)NC(=O)[C@H](CCCCN)NC(=O)[C@H](CCCCN)NC(=O)[C@H](CCCCN)NC(=O)[C@H](CCCCN)NC(=O)[C@H](CCCCN)NC(=O)[C@H](CCCCN)NC(=O)[C@@H](N)CCCCN)[C@@H](C)O)C(=O)N[C@@H](CC(C)C)C(=O)N[C@@H](CCCCN)C(=O)NCC(=O)N[C@@H](CCCCN)C(=O)O [CL26]
- transfection efficiency, CL26-complexed versus CL22-complexed DNA (human dendritic cells; Figure 35, peptide/DNA ratio between 1 and 1.8): higher efficiency
- transfection efficiency, CL26-complexed versus CL22-complexed DNA (human dendritic cells; Figures 33 and 34): higher efficiency

SMILES: CC[C@H](C)[C@H](NC(=O)[C@H](CC(N)=O)NC(=O)[C@H](CS)NC(=O)[C@H](CCSC)NC(=O)[C@H](CCCNC(=N)N)NC(=O)[C@H](CCC(=O)O)NC(=O)[C@H](Cc1ccc(O)cc1)NC(=O)[C@H](C)NC(=O)[C@H](CO)NC(=O)[C@H](CCCNC(=N)N)NC(=O)[C@@H](NC(=O)[C@H](CCCCN)NC(=O)[C@H](CCCNC(=N)N)NC(=O)CNC(=O)[C@H](CC(N)=O)NC(=O)[C@H](CCC(=O)O)NC(=O)CNC(=O)[C@H](CCCNC(=N)N)NC(=O)[C@H](Cc1c[nH]c2ccccc12)NC(=O)[C@H](Cc1ccccc1)NC(=O)CNC(=O)[C@H](CC(C)C)NC(=O)[C@H](Cc1ccccc1)NC(=O)CNC(=O)CNC(=O)[C@H](CCCCN)NC(=O)[C@H](CCCCN)NC(=O)[C@H](CCCCN)NC(=O)[C@H](CCCCN)NC(=O)[C@H](CCCCN)NC(=O)[C@@H](N)CCCCN)[C@@H](C)O)C(=O)N[C@@H](CC(C)C)C(=O)N[C@@H](CCCCN)C(=O)NCC(=O)N[C@@H](CCCCN)C(=O)O [K6CL22]
- size of large particles/aggregates of complex [1]: approx. 1000 nm
- uptake of complexed DNA compared to DNA complexed with a polylysine peptide (KLN 205 cells [2]; charge ratio +2, 120 µM chloroquine, 4 hours): taken up as efficiently
- uptake of complexed DNA compared to a polylysine peptide, presence of FCS (KLN 205 cells [2]; in the presence of FCS): less than that of a polylysine peptide
- transfection efficiency, CL22-complexed versus CL26-complexed DNA (human dendritic cells; Figure 35, peptide/DNA ratio between 2 and 2.6): greater
- transfection of Cos cells (β-galactosidase, relative light units per mg of protein) (Cos7 cells): very efficient transfection
- transfection compared with polylysine peptides or a histone based peptide (HepG2 cells): greater
- gene expression compared to NBC32 complexed plasmid DNA (KLN 205 cells [3]): higher
- % expressing cells (KLN 205 cells [3]; absence of FCS): 35%
- average light units (KLN 205 cells [3]; absence of FCS): 3000 x 10^6 RLU
- % expressing cells (KLN 205 cells [3]; presence of FCS): 5%
- average light units (KLN 205 cells [3]; presence of FCS): 77 x 10^6 RLU

SMILES: CC[C@H](C)[C@H](NC(=O)[C@H](CC(N)=O)NC(=O)[C@H](CS)NC(=O)[C@H](CCSC)NC(=O)[C@H](CCCNC(=N)N)NC(=O)[C@H](CCC(=O)O)NC(=O)[C@H](Cc1ccc(O)cc1)NC(=O)[C@H](C)NC(=O)[C@H](CO)NC(=O)[C@H](CCCNC(=N)N)NC(=O)[C@@H](NC(=O)[C@H](CCCCN)NC(=O)[C@H](CCCNC(=N)N)NC(=O)CNC(=O)[C@H](CC(N)=O)NC(=O)[C@H](CCC(=O)O)NC(=O)CNC(=O)[C@H](CCCNC(=N)N)NC(=O)[C@H](Cc1c[nH]c2ccccc12)NC(=O)[C@H](Cc1ccccc1)NC(=O)CNC(=O)[C@H](CC(C)C)NC(=O)[C@H](Cc1ccccc1)NC(=O)CNC(=O)CNC(=O)[C@H](CCCCN)NC(=O)[C@H](CCCCN)NC(=O)[C@H](CCCCN)NC(=O)[C@H](CCCCN)NC(=O)[C@H](CCCCN)NC(=O)[C@@H](N)CCCCN)[C@@H](C)O)C(=O)N[C@@H](CC(C)C)C(=O)N[C@@H](CCCCN)C(=O)NCC(=O)N[C@@H](CCCCN)C(=O)O [K6CL22 monomer]
- transfection of dendritic cells, monomer versus dimer (human dendritic cells; peptide/DNA ratio between 2.0 and 4.0): transfects dendritic cells poorly compared with CL22 dimer
- effect of FCS on transfection efficiency (human dendritic cells; presence of FCS compared to absence of FCS): greatly reduced
